# Laboratory results from PubChem BioAssay (NCI).
#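 Briefly, cells in 96-well plates were exposed to five compound concentrations for 48 h, and endpoints were estimated by linear interpolation. The concentration for 50% growth inhibition is given as GI50. The concentration for full growth arrest is given as TGI.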
# Assays:
# Experiment in all cases: NCI-60 cell line screen, 48 h
# OVCAR-5 ovarian = test system: OVCAR-5 ovarian
# UACC-257 melanoma = test system: UACC-257 melanoma
# HL-60(TB) leukemia = test system: HL-60(TB) leukemia
# SK-MEL-2 melanoma = test system: SK-MEL-2 melanoma
# SK-OV-3 ovarian = test system: SK-OV-3 ovarian
# K-562 leukemia = test system: K-562 leukemia
# OVCAR-8 ovarian = test system: OVCAR-8 ovarian
# A549 NSCLC = test system: A549 NSCLC
# NCI-H460 lung = test system: NCI-H460 lung
# PC-3 prostate = test system: PC-3 prostate
# SN12C renal = test system: SN12C renal
# ACHN renal = test system: ACHN renal
# IGROV1 ovarian = test system: IGROV1 ovarian
# SR leukemia = test system: SR leukemia
# SNB-75 CNS = test system: SNB-75 CNS
# OVCAR-3 ovarian = test system: OVCAR-3 ovarian
# SF-295 CNS = test system: SF-295 CNS
# HOP-62 NSCLC = test system: HOP-62 NSCLC
# HS 578T breast = test system: HS 578T breast
# HCC-2998 colon = test system: HCC-2998 colon
# MCF7 breast = test system: MCF7 breast
# MDA-MB-231 breast = test system: MDA-MB-231 breast
# HCT-116 colon = test system: HCT-116 colon
# DU-145 prostate = test system: DU-145 prostate
# COLO 205 colon = test system: COLO 205 colon
# KM12 colon = test system: KM12 colon
# 786-0 renal = test system: 786-0 renal
# MOLT-4 leukemia = test system: MOLT-4 leukemia
# TK-10 renal = test system: TK-10 renal
# RXF 393 renal = test system: RXF 393 renal
# HOP-92 NSCLC = test system: HOP-92 NSCLC
# SK-MEL-28 melanoma = test system: SK-MEL-28 melanoma
# SF-539 CNS = test system: SF-539 CNS
# UACC-62 melanoma = test system: UACC-62 melanoma
# UO-31 renal = test system: UO-31 renal
# HCT-15 colon = test system: HCT-15 colon
# SNB-19 CNS = test system: SNB-19 CNS
# NCI-H226 lung = test system: NCI-H226 lung
# HT29 colon = test system: HT29 colon
# A498 renal = test system: A498 renal
# SW-620 colon = test system: SW-620 colon
# LOX IMVI melanoma = test system: LOX IMVI melanoma
# NCI-H522 lung = test system: NCI-H522 lung
# M14 melanoma = test system: M14 melanoma
# RPMI-8226 leukemia = test system: RPMI-8226 leukemia
# T-47D breast = test system: T-47D breast
# EKVX NSCLC = test system: EKVX NSCLC
# SF-268 CNS = test system: SF-268 CNS
# U251 CNS = test system: U251 CNS
# MDA-MB-435 = test system: MDA-MB-435
# CCRF-CEM leukemia = test system: CCRF-CEM leukemia
# NCI-H23 lung = test system: NCI-H23 lung
# BT-549 breast = test system: BT-549 breast
# MALME-3M melanoma = test system: MALME-3M melanoma
# SK-MEL-5 melanoma = test system: SK-MEL-5 melanoma
# MDA-MB-468 breast = test system: MDA-MB-468 breast
compound,measurement,setting,value
O=C1C=CC(=CC=C2N(Cc3ccc4ccccc4c3)c3ccccc3N2Cc2ccc3ccccc3c2)C=C1,GI50,OVCAR-5 ovarian,1720 nM
same,TGI,OVCAR-5 ovarian,4410 nM
same,GI50,UACC-257 melanoma,1680 nM
same,TGI,UACC-257 melanoma,3610 nM
same,GI50,HL-60(TB) leukemia,385 nM
same,TGI,HL-60(TB) leukemia,1980 nM
same,GI50,SK-MEL-2 melanoma,1580 nM
same,TGI,SK-MEL-2 melanoma,3010 nM
same,GI50,SK-OV-3 ovarian,1720 nM
same,TGI,SK-OV-3 ovarian,5260 nM
same,GI50,K-562 leukemia,514 nM
same,GI50,OVCAR-8 ovarian,971 nM
same,TGI,OVCAR-8 ovarian,2350 nM
same,GI50,A549 NSCLC,1530 nM
same,TGI,A549 NSCLC,> 100000 nM
same,GI50,NCI-H460 lung,654 nM
same,TGI,NCI-H460 lung,1960 nM
same,GI50,PC-3 prostate,956 nM
same,TGI,PC-3 prostate,3100 nM
same,GI50,SN12C renal,1510 nM
same,TGI,SN12C renal,4680 nM
same,GI50,ACHN renal,3590 nM
same,TGI,ACHN renal,> 100000 nM
same,GI50,IGROV1 ovarian,1230 nM
same,TGI,IGROV1 ovarian,2570 nM
same,GI50,SR leukemia,902 nM
same,TGI,SR leukemia,3620 nM
same,GI50,SNB-75 CNS,1180 nM
same,TGI,SNB-75 CNS,3180 nM
same,GI50,OVCAR-3 ovarian,904 nM
same,TGI,OVCAR-3 ovarian,2310 nM
same,GI50,SF-295 CNS,1290 nM
same,TGI,SF-295 CNS,2870 nM
same,GI50,HOP-62 NSCLC,2210 nM
same,GI50,HS 578T breast,1470 nM
same,TGI,HS 578T breast,4080 nM
same,GI50,HCC-2998 colon,1500 nM
same,TGI,HCC-2998 colon,3010 nM
same,GI50,MCF7 breast,1190 nM
same,TGI,MCF7 breast,2540 nM
same,GI50,MDA-MB-231 breast,1400 nM
same,TGI,MDA-MB-231 breast,2760 nM
same,GI50,HCT-116 colon,971 nM
same,TGI,HCT-116 colon,3160 nM
same,GI50,DU-145 prostate,2670 nM
same,TGI,DU-145 prostate,> 100000 nM
same,GI50,COLO 205 colon,1290 nM
same,TGI,COLO 205 colon,2740 nM
same,GI50,KM12 colon,1520 nM
same,TGI,KM12 colon,3750 nM
same,GI50,786-0 renal,1580 nM
same,TGI,786-0 renal,3040 nM
same,GI50,MOLT-4 leukemia,1480 nM
same,TGI,MOLT-4 leukemia,4320 nM
same,GI50,TK-10 renal,2060 nM
same,TGI,TK-10 renal,5270 nM
same,GI50,RXF 393 renal,1330 nM
same,TGI,RXF 393 renal,2870 nM
same,GI50,HOP-92 NSCLC,883 nM
same,TGI,HOP-92 NSCLC,2500 nM
same,GI50,SK-MEL-28 melanoma,1290 nM
same,TGI,SK-MEL-28 melanoma,2840 nM
same,GI50,SF-539 CNS,1730 nM
same,TGI,SF-539 CNS,4070 nM
same,GI50,UACC-62 melanoma,1400 nM
same,TGI,UACC-62 melanoma,2820 nM
same,GI50,UO-31 renal,> 20700 nM
same,TGI,UO-31 renal,> 100000 nM
same,GI50,HCT-15 colon,3740 nM
same,TGI,HCT-15 colon,> 100000 nM
same,GI50,SNB-19 CNS,920 nM
same,TGI,SNB-19 CNS,2340 nM
same,GI50,NCI-H226 lung,1390 nM
same,TGI,NCI-H226 lung,2980 nM
same,GI50,HT29 colon,1880 nM
same,TGI,HT29 colon,5600 nM
same,GI50,A498 renal,2890 nM
same,TGI,A498 renal,> 26900 nM
same,GI50,SW-620 colon,1260 nM
same,TGI,SW-620 colon,2660 nM
same,GI50,LOX IMVI melanoma,887 nM
same,TGI,LOX IMVI melanoma,2230 nM
same,GI50,NCI-H522 lung,1480 nM
same,TGI,NCI-H522 lung,3030 nM
same,GI50,M14 melanoma,999 nM
same,TGI,M14 melanoma,2520 nM
same,GI50,RPMI-8226 leukemia,428 nM
same,TGI,RPMI-8226 leukemia,2180 nM
same,GI50,T-47D breast,1330 nM
same,TGI,T-47D breast,4750 nM
same,GI50,EKVX NSCLC,1260 nM
same,TGI,EKVX NSCLC,3940 nM
same,GI50,SF-268 CNS,2780 nM
same,TGI,SF-268 CNS,8810 nM
same,GI50,U251 CNS,520 nM
same,TGI,U251 CNS,1780 nM
same,GI50,MDA-MB-435,1360 nM
same,TGI,MDA-MB-435,2690 nM
same,GI50,CCRF-CEM leukemia,1460 nM
same,TGI,CCRF-CEM leukemia,6220 nM
same,GI50,NCI-H23 lung,1250 nM
same,TGI,NCI-H23 lung,2700 nM
same,GI50,BT-549 breast,1260 nM
same,TGI,BT-549 breast,3420 nM
same,GI50,MALME-3M melanoma,1410 nM
same,TGI,MALME-3M melanoma,3200 nM
same,GI50,SK-MEL-5 melanoma,697 nM
same,TGI,SK-MEL-5 melanoma,1690 nM
same,GI50,MDA-MB-468 breast,399 nM
same,TGI,MDA-MB-468 breast,1490 nM
